For 18 molecules, ring closure, isolated yield, EC50 and ring closure, yield after HPLC results are on record in patent US9663536B2, “Inhibitors of human immunodeficiency virus replication” (priority 2013, dated 2017).

System in one series: not given
Test: not given
The following applies: from C=CCCC1(C)CCN(c2c(CC(=O)OC)c(C)nc3cc(-c4cnn(Cc5ccccc5OCC=C)c4)nn23)CC1; rcm bond; 20-membered ring; Hoveyda-Grubbs II (10 mol%); DCE; 5.02 mM; 70.0 °C; 1.0 h.
On to `COC(=O)Cc1c(C)nc2cc3nn2c1N1CCC(C)(CC/C=C/COc2ccccc2Cn2cc-3cn2)CC1`, for which the ring closure, isolated yield was determined as 63%.

Staying with this series, now noted: from C=CCOc1ccccc1Cc1cnc(-c2cc3nc(C)c([C@H](OC(C)(C)C)C(=O)OCC)c(N4CCC(C)(OCC=C)CC4)n3n2)s1; rcm bond; 20-membered ring; Hoveyda-Grubbs II (10 mol%); DCE; 1.64 mM; 70.0 °C; 2.0 h.
In turn, `CCOC(=O)[C@@H](OC(C)(C)C)c1c(C)nc2cc3nn2c1N1CCC(C)(CC1)OCC=CCOc1ccccc1Cc1cnc-3s1` returned a ring closure, isolated yield of 76%.

The series is the same for the next values; noted with them: from C=CCOc1ccccc1Cc1cnn(-c2cc3nc(C)c([C@H](OC(C)(C)C)C(=O)OC)c(N4CCC(C)(OCC=C)CC4)n3n2)c1; rcm bond; 20-membered ring; Hoveyda-Grubbs II (10 mol%); DCE; 1.2 mM; 70.0 °C; 3.0 h.
Turning to `COC(=O)[C@@H](OC(C)(C)C)c1c(C)nc2cc3nn2c1N1CCC(C)(CC1)OC/C=C/COc1ccccc1Cc1cnn-3c1`, the ring closure, isolated yield was determined as 74%.

The subject of the next series is recombinant NL-Rluc virus. In words: Inhibition of HIV replication (NL-Rluc virus in MT-2 cells, luciferase readout). The format is cell-based. As to conditions: Human immunodeficiency virus 1, MT2, 120 h.
Take `Cc1nc2cc3nn2c(c1[C@H](OC(C)(C)C)C(=O)O)N1CCC(C)(CC1)OCCCCOc1c(F)cccc1Cc1cnn-3c1` [Example 28, (2S)-2-(tert-Butoxy)-2-{19-fluoro-4,27-dimethyl-21,26-dioxa-1,5,7,8,10,11-hexaazahexacyclo[25.2.2.1^6,9.1^10,13.0^2,7.0^15,20]tritriaconta-2,4,6(33),8,11,13(32),15(20),16,18-nonaen-3-yl}acetic acid]: the concentration for a half-maximal effect (EC50) came to 11 nM. Same read-out and setting: under `Cc1nc2cc3nn2c(c1[C@H](OC(C)(C)C)C(=O)O)N1CCC(C)(CC1)OC/C=C/COc1ccc(F)cc1Cc1cnn-3c1` [Example 29, (2S)-2-(tert-Butoxy)-2-[(23E)-17-fluoro-4,27-dimethyl-21,26-dioxa-1,5,7,8,10,11-hexaazahexacyclo[25.2.2.1^6,9.1^10,13.0^2,7.0^15,20]tritriaconta-2,4,6(33),8,11,13(32),15(20),16,18,23-decaen-3-yl]acetic acid] stands 2 nM; under `Cc1nc2cc3nn2c(c1[C@H](OC(C)(C)C)C(=O)O)N1CCC(C)(CC1)OCCCCOc1ccc(F)cc1Cc1cnn-3c1` [Example 30, (2S)-2-(tert-Butoxy)-2-{17-fluoro-4,27-dimethyl-21,26-dioxa-1,5,7,8,10,11-hexaazahexacyclo[25.2.2.1^6,9.1^10,13.0^2,7.0^15,20]tritriaconta-2,4,6(33),8,11,13(32),15(20),16,18-nonaen-3-yl}acetic acid], 2 nM. Still for that read-out and setting: under `Cc1nc2cc3nn2c(c1[C@H](OC(C)(C)C)C(=O)O)N1CCC(C)(CC1)OC/C=C/CCOc1ccccc1Cc1cnn-3c1` [Example 31, (2S)-2-(tert-Butoxy)-2-[(24E)-4,28-dimethyl-21,27-dioxa-1,5,7,8,10,11-hexaazahexacyclo[26.2.2.1^6,9.1^10,13.0^2,7.0^15,20]tetratriaconta-2,4,6(34),8,11,13(33),15(20),16,18,24-decaen-3-yl]acetic acid] stands 2 nM; under `Cc1nc2cc3nn2c(c1[C@H](OC(C)(C)C)C(=O)O)N1CCC(C)(CC1)OC/C=C\CCOc1ccccc1Cc1cnn-3c1` [Example 32, (2S)-2-(tert-butoxy)-2-[(24Z)-4,28-dimethyl-21,27-dioxa-1,5,7,8,10,11-hexaazahexacyclo[26.2.2.1^6,9.1^10,13.0^2,7.0^15,20]tetratriaconta-2,4,6(34),8,11,13(33),15(20),16,18,24-decaen-3-yl]acetic acid], 6 nM. The same measure, in the same setting: under `Cc1nc2cc3nn2c(c1[C@H](OC(C)(C)C)C(=O)O)N1CCC(C)(CC1)OCCCCCOc1ccccc1Cc1cnn-3c1` [Example 33, (2S)-2-(tert-Butoxy)-2-{4,28-dimethyl-21,27-dioxa-1,5,7,8,10,11-hexaazahexacyclo[26.2.2.1^6,9.1^10,13.0^2,7.1^15,20]tetratriaconta-2,4,6(34),8,11,13 (33), 15 (20), 16,18-nonaen-3-yl}acetic acid] stands 2 nM; under `Cc1nc2cc3nn2c(c1[C@H](OC(C)(C)C)C(=O)O)N1CCC(C)(CC/C=C/CCOc2ccccc2Cc2cnn-3c2)CC1` [Example 34, (2S)-2-(tert-Butoxy)-2-[(24E)-4,28-dimethyl-21-oxa-1,5,7,8,10,11-hexaazahexacyclo[26.2.2.1^6,9.1^10,13.0^2,7.0^15,20]tetratriaconta-2,4,6(34),8,11,13(33),15(20),16,18,24-decaen-3-yl]acetic acid], 8 nM. Turning to `Cc1nc2cc3nn2c(c1[C@H](OC(C)(C)C)C(=O)O)N1CCC(C)(CC/C=C\CCOc2ccccc2Cc2cnn-3c2)CC1` [Example 35, (2S)-2-(tert-Butoxy)-2-[(24Z)-4,28-dimethyl-21-oxa-1,5,7,8,10,11-hexaazahexacyclo[26.2.2.1^6,9.1^10,13.0^2,7.0^15,20]tetratriaconta-2,4,6(34),8,11,13(33),15(20),16,18,24-decaen-3-yl]acetic acid], the EC50 came out at 20 nM. Same read-out and setting: under `Cc1nc2cc3nn2c(c1[C@H](OC(C)(C)C)C(=O)O)N1CCC(C)(CCCCCCOc2ccccc2Cc2cnn-3c2)CC1` [Example 36, (2S)-2-(tert-Butoxy)-2-{4,28-dimethyl-21-oxa-1,5,7,8,10,11-hexaazahexacyclo[26.2.2.1^6,9.1^10,13.0^2,7.0^15,20]tetratriaconta-2,4,6(34),8,11,13(33),15(20),16,18-nonaen-3-yl}acetic acid] stands 14 nM; under `Cc1nc2cc3nn2c(c1[C@H](OC(C)(C)C)C(=O)O)N1CCC(C)(CC/C=C/COc2cccc(c2)Cc2cnn-3c2)CC1` [Example 37], 3 nM; under `Cc1nc2cc3nn2c(c1[C@H](OC(C)(C)C)C(=O)O)N1CCC(C)(CC/C=C\COc2cccc(c2)Cc2cnn-3c2)CC1` [Example 38], 22 nM. For the molecule `Cc1nc2cc3nn2c(c1[C@H](OC(C)(C)C)C(=O)O)N1CCC(C)(CCCCCOc2cccc(c2)Cc2cnn-3c2)CC1` [Example 39, (2S)-2-(tert-Butoxy)-2-{4,26-dimethyl-20-oxa-1,5,7,8,10,11-hexaazahexacyclo[24.2.2.1^6,9.1^10,13.1^15,19.0^2,7]tritriaconta-2,4,6(33),8,11,13(32),15(31),16,18-nonaen-3-yl}acetic acid], the EC50 is 6 nM. Still for that read-out and setting: under `Cc1nc2cc3nn2c(c1[C@H](OC(C)(C)C)C(=O)O)N1CCC(C)(CCCCCOc2ccccc2Cn2cc-3cn2)CC1` [Example 40, (2S)-2-(tert-Butoxy)-2-{4,27-dimethyl-21-oxa-1,5,7,8,12,13-hexaazahexacyclo[25.2.2.1^6,9.1^10,13.0^2,7.0^15,20]tritriaconta-2,4,6(33),8,10(32),11,15(20),16,18-nonaen-3-yl}acetic acid] stands 4 nM; under `Cc1nc2cc3nn2c(c1[C@H](OC(C)(C)C)C(=O)O)N1CCC(C)(CC/C=C/COc2ccccc2Cn2cc-3cn2)CC1` [Example 41], 3 nM.

System in another series: not given
Test: not given
The following applies: from C=CCCc1ccccc1Cc1cnc(-c2cc3nc(C)c([C@H](OC(C)(C)C)C(=O)OCC)c(N4CCC(C)(OCC=C)CC4)n3n2)s1; rcm bond; 19-membered ring; Hoveyda-Grubbs II (7 mol%); DCE; 3.67 mM; 70.0 °C; 2.0 h.
For the molecule `CCOC(=O)[C@@H](OC(C)(C)C)c1c(C)nc2cc3nn2c1N1CCC(C)(CC1)OCC=CCCc1ccccc1Cc1cnc-3s1`, the ring closure, yield after HPLC was 8.65%.

Still in this series, the particulars now being: from C=CCCc1ccccc1Cc1cnc(-c2cc3nc(C)c([C@H](OC(C)(C)C)C(=O)OCC)c(N4CCC(C)(OCC=C)CC4)n3n2)s1; rcm bond; 20-membered ring; Hoveyda-Grubbs II (7 mol%); DCE; 3.67 mM; 70.0 °C; 2.0 h.
`CCOC(=O)[C@@H](OC(C)(C)C)c1c(C)nc2cc3nn2c1N1CCC(C)(CC1)OCC=CCCc1ccccc1Cc1cnc-3s1` yielded a ring closure, yield after HPLC of 19.7%.
